This is an account of results in US11981944B2, “Immunogenic arginase peptides” (IO Biotech ApS, priority 2016, dated 2024).

For one assay, the system named is C57BL/6 and Balb/c mice. The experiment in a line: Peptide vaccination of mice and IFNgamma ELISPOT of spleen or dLN cells. Particulars: 100 μg peptide s.c. day0 and day7. The assay is classed as in vivo, mouse. As to the method: Animals were vaccinated subcutaneously with 100 μg peptide in DMSO/H2O in a 1:1 emulsion with incomplete Freund's adjuvant (IFA) or montanide. IFA+DMSO/H2O served as a control vaccine. Vaccinations were carried out on day0 and day7. For subsequent analysis of the immune response to specific peptides, mice were sacrificed on day 14 and spleen and draining lymph nodes (dLNs) were harvested.
Murine immune cells were subjected to ELISPOT analysis. Single cell suspension was prepared from spleen or dLNs by passage through a cell strainer. After lysis of red blood cells, 0.9×10E6 cells/well were seeded into ELISPOT plates coated with anti-IFNgamma antibody. Peptide of interest was added to designated wells and cells were incubated o/n with peptide. The next day, cells were removed, plates washed and incubated with biotinylated detection antibody. Finally, after addition of Streptavidin-ALP and substrate visible spots appear. Each spot corresponds to an individual IFNgamma producing cell. Plates were analysed in an Immunospot analyser and plotted as spots/0.9×10E6 cells minus background (i.e. minus number of spots in corresponding unstimulated (no peptide) wells).

Assay [1] relates to CT26.WT colon cancer cells. The experiment in a line: Tumor vaccination of Balb/c mice bearing CT26.WT tumors. The format is in vivo, mouse. To be noted: for tumor growth relative to vaccination with control peptide: vaccination day6 and day 13, FIG. 16.
In assay [2] the test system is arginase-specific CD4+ T-cell culture. Briefly: Recognition by arginase-specific CD4+ T-cell culture (ArgShort-stimulated). The format is cell-based, human. To be noted: IFNγ ELISPOT and intracellular staining; FIG. 11C. As to the method: PBMCs from healthy donors or cancer patients were stimulated with 80 μg of arginase-derived peptides and 120 U/ml IL-2 (Peprotech, London, UK, cat. 200-02) for a week. 4-6×10^5 PBMCs were then placed in the bottom of ELISPOT plate (nitrocellulose bottomed 96-well plates by MultiScreen MAIP N45; Millipore, cat. MSIPN4W50) pre-coated with IFN-y capture Ab (Mabtech, cat. 3420-3-1000) and 1-10 μg of arginase derived peptides were added. PBMCs from each patient and donors were set up in duplicates or triplicates for peptide and control stimulations. Cells were incubated in ELISPOT plates in the presence of an antigen for 14-16 hours after which they are washed off and secondary biotinylated Ab (Mabtech, cat. 3420-6-1000) was added. After 2 h incubation unbound secondary antibody was washed off and streptavidin conjugated alkaline phosphatase (AP) (Mabtech, cat. 3310-10) was added for 1 h. Next, unbound conjugated enzyme is washed off and the assay is developed by adding BCIP/NBT substrate (Mabtech, cat. 3650-10). Developed ELISPOT plates were analysed on CTL ImmunoSpot S6 Ultimate-V analyzer using Immunospot software v5.1. Responses were calculated as the difference between average numbers of spots in wells stimulated with Arginase-1 peptides and control wells.
Arginase-specific T cell culture were established by stimulation of cancer patient PBMC with irradiated ArgShort (SEQ ID NO 9) peptide-loaded autologous DC or PBMCs. The following day IL-7 and IL-12 (PeproTech, London, UK, cat. 200-07-10 and 200-12) were added. Stimulation of the cultures were carried out every 8 days with ArgShort peptide loaded irradiated autologous DC followed by ArgShort peptide-loaded irradiated autologous PBMC. The day after peptide stimulation IL-2 […]. After 5 stimulations arginase-specific T cells were enriched using TNF-α cell enrichment kit (MiltenyiBiotec, cat. 130-091-269).
Flow cytometry analysis was performed on a FACSCanto™ II (BD Biosciences, San Jose CA, USA). […]

Assay [3] concerns PBMCs from healthy donors or cancer patients. The experiment in a line: IFNγ ELISPOT on PBMCs after one week peptide and IL-2 stimulation (Example 2). The assay is classed as cell-based, human. To be noted: for spontaneous IFNγ ELISPOT responses against 20-mer library peptides: cancer (melanoma) patient PBMCs, FIG. 9A. The procedure:
PBMCs from healthy donors or cancer patients were stimulated with 80 μg of arginase-derived peptides and 120 U/ml IL-2 (Peprotech, London, UK, cat. 200-02) for a week. 4-6×10^5 PBMCs were then placed in the bottom of ELISPOT plate (nitrocellulose bottomed 96-well plates by MultiScreen MAIP […]; Millipore, cat. MSIPN4W50) pre-coated with IFN-y capture Ab (Mabtech, cat. 3420-3-1000) and 1-10 μg of arginase derived peptides were added. PBMCs from each patient and donors were set up in duplicates or triplicates for peptide and control stimulations. Cells were incubated in ELISPOT plates in the presence of an antigen for 14-16 hours after which they are washed off and secondary biotinylated Ab (Mabtech, cat. 3420-6-1000) was added. After 2 h incubation unbound secondary antibody was washed off and streptavidin conjugated alkaline phosphatase (AP) (Mabtech, cat. 3310-10) was added for 1 h. Next, unbound conjugated enzyme is washed off and the assay is developed by adding BCIP/NBT substrate (Mabtech, cat. 3650-10). Developed ELISPOT plates were analysed on CTL ImmunoSpot S6 Ultimate-V analyzer using Immunospot software v5.1. Responses were calculated as the difference between average numbers of spots in wells stimulated with Arginase-1 peptides and control wells. We divided the entire arginase-1 protein sequence into overlapping 20-amino-acid-long peptides, generating a library of 31 peptides covering the whole sequence (SEQ ID NOs 18-48)). Each peptide in the library overlapped with the first 10 amino acids of the following peptide. Using this arginase peptide library and the IFNγ ELISPOT assay, we next screened PBMCs from melanoma patients and healthy donors for spontaneous responses (FIGS. 9A and 9B). The PBMCs were stimulated for one week with a pool of 3-4 adjacent 20-mer arginase library peptides and low-dose IL-2 (120 U/mL). They were then set up for an IFNγ ELISPOT assay to screen for responses against each 20-mer peptide separately. […] Among these overlapping peptides, […]-200), and Arg(191-210) spanned a 50-amino-acid-long region that was deemed a hot-spot region since nearly all patients harbored a response against one or more of these peptides (FIG. 9A). The selected eight peptides were further used to screen for spontaneous immune responses against arginase-1 in PBMCs from eight healthy donors using IFNγ ELISPOT. […] Since we most frequently observed responses against arginase-1 peptides from the hot-spot region, we next analyzed whether longer peptides covering the same sequence could be used instead of four 20-mers. […] We then divided the arginase-1 hot-spot region into two 30-mer peptides that overlapped by 10 amino acids (peptides labelled by reference to start and end position): […]-190) and […]-210). These 30-mer peptides were used to check for responses in selected PBMCs from cancer patients and healthy donors, which had previously shown responses against the 20-mer hot-spot peptides. The PBMCs were stimulated for one week with either […]-190) or […]-210) in the presence of IL-2, and were then used in IFNγ ELISPOT.

Assay [4] deals with TILs from eight melanoma patients. The experiment in a line: Intracellular staining for IFNγ and TNFα release in melanoma TILs. The format is cell-based, human. Particulars: for IFNγ or TNFα release from CD8+ T cells: TILs; for IFNγ or TNFα release from CD8+ T cells / IFNγ release from CD4+ T cells: 5 h peptide stimulation; for IFNγ release from CD4+ T cells: one of the TIL cultures, FIG. 10A. The procedure:
Flow cytometry analysis was performed on a FACSCantoTM II (BD Biosciences, San Jose CA, USA). Intracellular staining of cell cultures was performed after the cells were stimulated with 20-mere peptides for 5 hours or 30-mere peptides for 8h (BD GolgiPlugTM cat. 555029, was added after the first hour). The cells were then stained for surface markers, then washed and permeabilized by using Fixation/Permeabilization and Permeabilization Buffer (eBioscience, cat. 00-5123-43), according to manufacturer's instructions. Antibodies used: IFNγ-APC (cat. 341117), TNFα-BV421 (cat. 562783), CD4-FITC (cat. 347413), CD8-PerCP (cat. 345774) (all from BD Biosciences). Dead cells were stained using FVS510 (564406, BD Biosciences) according to manufacturer's instructions. To investigate the potential presence of arginase-specific T cells among tumor-infiltrating lymphocytes in cancer, we screened TILs from eight melanoma patients for responses against arginase-1 derived peptides. To this end, we performed intracellular staining for IFNγ and TNFα release in response to peptide stimulation. TILs were thawed and rested overnight without IL-2, and then stimulated for 5 h with three hot-spot immunogenic region 20-mer peptides (peptides labelled by reference to start and end position): […]-200). […] The percentage of IFNγ-producing cells was higher for […]-190) and […]-200) compared to […]-180), and the response against […]-200) was almost twice that against […]-180).

Assay [5] concerns peripheral blood mononuclear cells (PBMC). The experiment in a line: IFN-gamma ELISPOT secretion assay on PBMC (Example 1). The assay is classed as cell-based, human. Particulars: PBMC from three cancer patients; FIG. 3.
The mark [6] stands for this setting: CD4+ T cells in TILs, 5 h stimulation.

As to “LGIKYFSM (Peptide fragment of human Arginase 1) [mARG2, positions 193-200 of human Arginase 1; murine region identical]”, the “immunogenicity (peptide specific IFNgamma ELISPOT response)” value (“immunogenicity” for short) in the assay with C57BL/6 and Balb/c mice (Balb/c mice, FIG. 15) was “not immunogenic”; with C57BL/6 and Balb/c mice (C57BL/6 mice, FIG. 14), “not immunogenic”.

On to “KTLGIKYFSMTEVDKLGIGK (Peptide fragment of murine Arginase 1) [mARG20, positions 191-210 of murine Arginase 1]”, for which, in assay [1], the “size of the tumor growth effect among the tested peptides” value is “most noticeable” and the “tumor growth relative to vaccination with control peptide” value (shortened to “tumor growth relative to vaccination”) was “inhibit tumor growth”. Further, the “immunogenicity” value with C57BL/6 and Balb/c mice (Balb/c mice, FIG. 15) is listed as “immunogenic”. Further, the “immunogenicity” value in the assay with C57BL/6 and Balb/c mice (C57BL/6 mice, FIG. 14) is “immunogenic”.

In the case of “KDIVYIGL (Peptide fragment of human Arginase 1) [mARG1, positions 172-179 of human Arginase 1; murine region identical]”, the “immunogenicity” value in the assay on C57BL/6 and Balb/c mice (C57BL/6 mice, FIG. 14) is “immunogenic”.

On to “GFSWVTPCISAKDIVYIGLRDVDPGEHYILKTLGIKYFSMTEVDRLGIGK (Peptide fragment of human Arginase 1) [50-mer peptide, 50-mer covering the entire hot-spot region, positions 161-210 of human Arginase 1]”, for which the “recognition by T-cell culture specific against the minimal arginase epitope” value in assay [2] is “not recognized”. Further, the “IFNγ ELISPOT responses against longer hot-spot peptides” value in assay [3] (selected PBMCs from cancer patients and healthy donors, one week stimulation with IL-2, FIG. 10B, 10C) was “lower responses compared to the 20-mer peptides”.

Turning to “DVDPGEHYILKTLGIKYFSM (Peptide frgment of human Arginase 1) [Arg1-19, positions 181-200 of human Arginase 1]”, in assay [1], the “size of the tumor growth effect among the tested peptides” value was “most noticeable” and the “tumor growth relative to vaccination” value is “inhibit tumor growth”. The “spontaneous IFNγ ELISPOT responses against 20-mer library peptides” value in assay [3] is “highest and most abundant responses”. In addition, in the assay with C57BL/6 and Balb/c mice (Balb/c mice, FIG. 15), the “immunogenicity” value is “immunogenic”. The “immunogenicity” value with C57BL/6 and Balb/c mice (C57BL/6 mice, FIG. 14) is reported as “immunogenic”. Besides, in assay [4] (setting [6]), the “percentage of IFNγ-producing cells compared to Arg(161-180)” value was “higher” and the “response relative to that against Arg(161-180)” value is recorded as “almost twice that against Arg(161-180)”. Also, in assay [4], the “IFNγ or TNFα release from CD8+ T cells” value is on record as “No IFNγ or TNFα release was observed” and the “IFNγ release from CD4+ T cells” value was “IFNγ was released from CD4+ T cells”. Moreover, the “immune responses against overlapping 20mer peptides” value in assay [5] is given as “Frequent immune responses were detected”.

With “GFSWVTPCISAKDIVYIGLR (Peptide fragment of human Arginase 1) [Arg1-17, positions 161-180 of human Arginase 1; murine region identical]”, in assay [1], the “tumor growth relative to vaccination” value was “inhibit tumor growth”. For the same sequence, in assay [3], the “spontaneous IFNγ ELISPOT responses against 20-mer library peptides” value was “highest and most abundant responses”. Further, the “immunogenicity” value in the assay on C57BL/6 and Balb/c mice (Balb/c mice, FIG. 15) was “immunogenic”. Also, the “immunogenicity” value with C57BL/6 and Balb/c mice (C57BL/6 mice, FIG. 14) was “immunogenic”. Besides, in assay [4], the “IFNγ or TNFα release from CD8+ T cells” value is “No IFNγ or TNFα release was observed” and the “IFNγ release from CD4+ T cells” value was “IFNγ was released from CD4+ T cells”. Also, the “immune responses against overlapping 20mer peptides” value in assay [5] is on record as “Frequent immune responses were detected”.
